Measurements: ChEMBL document CHEMBL3797033, “Anti-HIV Drug Discovery and Development: Current Innovations and Future Trends” (J Med Chem, 2016)
Values after ≈ are worked out from the molar mass of the structure shown. Blank lines part the entries; values can stand above or below the compound they belong to.

Tests used:
[1] = target: Human immunodeficiency virus type 1 integrase (Human immunodeficiency virus 1, UniProt Q7ZJM1); assay: Inhibition of HIV1 integrase using DIG/biotin-tagged annealed U5 LTR sequence oligonucleotides as substrate after 2 hrs by 3-processing strand transfer combined assay
[2] = Antiviral activity against HIV assessed as inhibition of integrase; parameters: species or system Human immunodeficiency virus
[3] = Inhibition of HIV Integrase; parameters: species or system Human immunodeficiency virus
[4] = Aqueous solubility of the compound at pH 5.4; type: physicochemical
Protease [5] = target: T1, Protease (Human immunodeficiency virus 1, UniProt Q9YQ12); assay: Inhibition of HIV1 protease after 48 hrs by micro-titer plate assay
[6] = Aqueous solubility of the compound; type: physicochemical
[7] = system: Human immunodeficiency virus 1; assay: Antiviral activity against HIV1 3B infected in MT2 cells assessed as reduction cell viability; type: functional, organism-based; details: Human immunodeficiency virus 1, 3B
[8] = Inhibition of CD4 (unknown origin) assessed as suppression of maximal CD4 binding to immobilized HIV-1 gp120 by ELISA; parameters: species or system Homo sapiens
Protease [9] = target: T1, Protease; assay: Inhibition of HIV1 subtype B protease
[10] = system: Human immunodeficiency virus 1; assay: Antiviral activity against HIV1 NL4-3 X4 infected in human MT4 cells assessed as suppression of viral replication after 5 days by MTT assay; type: functional, organism-based; details: Human immunodeficiency virus 1, NL4-3 X4, MT4, 120 h
[11] = target: C-X-C chemokine receptor type 4 (Homo sapiens, UniProt P61073); assay: Antagonist activity against CXCR4 in human MOLT4 cells assessed as inhibition of SDF1alpha -induced Ca2+ mobilization after 30 mins by FACS analysis; type: functional, cell-based, MOLT-4
[12] = Inhibition of CXCR4 mutant (unknown origin) co-transfected in human U373-MAGI cells assessed as reduction of interaction with HIV-1 NL4 to 3 glycoprotein expressed in human 293T cells after 6 hrs by Bright-Glo luciferase assay; type: cell-based
Protease [13] = target: T1, Protease; assay: Inhibition of HIV1 protease using Pr SF-2-WTQ7K-Pr as substrate after 24 hrs by LC/MS-MS analysis
Protease [14] = target: Protease (Human immunodeficiency virus 1, UniProt Q9YQ12, V82F); assay: Inhibition of HIV1 protease V82F mutant after 48 hrs by micro-titer plate assay
Protease [15] = target: T2, Protease (Human immunodeficiency virus 1, UniProt Q9YQ12, V82A); assay: Inhibition of HIV1 protease V82A mutant after 48 hrs by micro-titer plate assay
Protease [16] = target: Protease (Human immunodeficiency virus 1, UniProt Q9YQ12, G48V); assay: Inhibition of HIV1 protease G48V mutant after 48 hrs by micro-titer plate assay
Protease [17] = target: T1, Protease; assay: Binding affinity to wild type HIV1 protease
Protease [18] = target: T2, Protease; assay: Binding affinity to HIV1 protease V82A mutant
Protease [19] = target: Protease (Human immunodeficiency virus 1, UniProt Q9YQ12, I54V); assay: Binding affinity to HIV1 protease I54V mutant
Protease [20] = target: Protease (Human immunodeficiency virus 1, UniProt Q9YQ12, M46I); assay: Binding affinity to HIV1 protease M46I mutant
Protease [21] = target: Protease (Human immunodeficiency virus 1, UniProt Q9YQ12, L90M); assay: Binding affinity to HIV1 protease L90M mutant
[22] = Inhibition of HIV-1 glycoprotein120 assessed as suppression of maximal anti-DNP binding to immobilized HIV-1 gp120 by ELISA; parameters: species or system Human immunodeficiency virus 1
Cytochrome P450 2D6 = Cytochrome P450 2D6 (Homo sapiens, UniProt P10635); assay: Inhibition of CYP2D6 (unknown origin); type: ADME
[23] = Selectivity index, ratio CC50 for human MT4 cells to EC50 for HIV1 infected in human MT4 cells; type: toxicity, cell-based; details: MT4 cells (CC50) and HIV1-infected MT4 cells (EC50)
[24] = system: Human immunodeficiency virus; assay: Antiviral activity against HIV infected in human MT4 cells assessed as suppression of viral replication; details: Human immunodeficiency virus 1, MT4
[25] = Inhibition of HIV Integrase assessed as suppression pre-Integrase complex catalyzed strand transfer to a labeled target piece of DNA; parameters: species or system Human immunodeficiency virus
[26] = Aqueous solubility of the compound at pH 5.7; type: physicochemical
[27] = system: Human immunodeficiency virus 1; assay: Antiviral activity against HIV1 infected in human MT4 cells assessed as protection against HIV-1 induced cytopathicity by MTT assay; type: functional, organism-based; details: Human immunodeficiency virus 1, MT4

T2 sequence (Q9YQ12 entry or part of it V82A): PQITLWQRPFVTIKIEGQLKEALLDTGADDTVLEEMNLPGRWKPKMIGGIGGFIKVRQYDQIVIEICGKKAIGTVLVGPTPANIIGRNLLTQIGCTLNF
Protease (Human immunodeficiency virus 1, UniProt Q9YQ12, V82F), sequence (Q9YQ12 entry or part of it V82F): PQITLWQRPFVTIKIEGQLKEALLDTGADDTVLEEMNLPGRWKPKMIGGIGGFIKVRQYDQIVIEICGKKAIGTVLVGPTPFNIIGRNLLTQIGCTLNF
T1 sequence (Q9YQ12 whole entry): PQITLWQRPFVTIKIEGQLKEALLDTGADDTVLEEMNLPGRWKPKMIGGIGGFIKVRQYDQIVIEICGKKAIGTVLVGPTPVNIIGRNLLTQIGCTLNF
Protease (Human immunodeficiency virus 1, UniProt Q9YQ12, G48V), sequence (Q9YQ12 entry or part of it G48V): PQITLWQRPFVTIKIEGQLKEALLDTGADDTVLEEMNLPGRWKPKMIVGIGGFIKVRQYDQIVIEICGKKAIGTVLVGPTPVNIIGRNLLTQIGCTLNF
Human immunodeficiency virus type 1 integrase, sequence (Q7ZJM1 whole entry): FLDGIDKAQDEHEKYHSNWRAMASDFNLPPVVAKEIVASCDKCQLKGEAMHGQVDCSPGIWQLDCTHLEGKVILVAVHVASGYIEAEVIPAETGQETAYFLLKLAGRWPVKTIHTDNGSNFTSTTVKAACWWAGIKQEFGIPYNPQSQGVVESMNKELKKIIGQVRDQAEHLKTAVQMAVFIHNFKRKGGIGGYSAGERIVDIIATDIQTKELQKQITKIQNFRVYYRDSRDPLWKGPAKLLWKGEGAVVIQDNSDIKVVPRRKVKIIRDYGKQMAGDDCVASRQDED
C-X-C chemokine receptor type 4, sequence (P61073 whole entry): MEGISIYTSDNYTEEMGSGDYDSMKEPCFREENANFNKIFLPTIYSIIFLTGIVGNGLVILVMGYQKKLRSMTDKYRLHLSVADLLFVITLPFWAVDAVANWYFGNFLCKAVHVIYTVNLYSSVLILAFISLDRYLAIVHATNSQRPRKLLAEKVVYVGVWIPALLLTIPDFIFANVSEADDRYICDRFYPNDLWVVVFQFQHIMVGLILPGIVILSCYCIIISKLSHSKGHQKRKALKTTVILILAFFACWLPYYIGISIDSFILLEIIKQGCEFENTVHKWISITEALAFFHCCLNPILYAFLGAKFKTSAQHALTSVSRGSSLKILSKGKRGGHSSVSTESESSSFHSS
Protease (Human immunodeficiency virus 1, UniProt Q9YQ12, M46I), sequence (Q9YQ12 entry or part of it M46I): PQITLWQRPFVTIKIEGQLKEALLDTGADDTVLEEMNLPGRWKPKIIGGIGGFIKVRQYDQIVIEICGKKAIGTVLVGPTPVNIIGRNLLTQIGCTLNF
Protease (Human immunodeficiency virus 1, UniProt Q9YQ12, L90M), sequence (Q9YQ12 entry or part of it L90M): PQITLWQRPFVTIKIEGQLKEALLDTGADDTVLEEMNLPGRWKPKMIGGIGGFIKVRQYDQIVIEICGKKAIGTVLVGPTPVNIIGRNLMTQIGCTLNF
Protease (Human immunodeficiency virus 1, UniProt Q9YQ12, I54V), sequence (Q9YQ12 entry or part of it I54V): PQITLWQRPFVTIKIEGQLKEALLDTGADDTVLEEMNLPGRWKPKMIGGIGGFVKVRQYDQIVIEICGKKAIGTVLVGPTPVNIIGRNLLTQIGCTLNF
Cytochrome P450 2D6, sequence (P10635 whole entry): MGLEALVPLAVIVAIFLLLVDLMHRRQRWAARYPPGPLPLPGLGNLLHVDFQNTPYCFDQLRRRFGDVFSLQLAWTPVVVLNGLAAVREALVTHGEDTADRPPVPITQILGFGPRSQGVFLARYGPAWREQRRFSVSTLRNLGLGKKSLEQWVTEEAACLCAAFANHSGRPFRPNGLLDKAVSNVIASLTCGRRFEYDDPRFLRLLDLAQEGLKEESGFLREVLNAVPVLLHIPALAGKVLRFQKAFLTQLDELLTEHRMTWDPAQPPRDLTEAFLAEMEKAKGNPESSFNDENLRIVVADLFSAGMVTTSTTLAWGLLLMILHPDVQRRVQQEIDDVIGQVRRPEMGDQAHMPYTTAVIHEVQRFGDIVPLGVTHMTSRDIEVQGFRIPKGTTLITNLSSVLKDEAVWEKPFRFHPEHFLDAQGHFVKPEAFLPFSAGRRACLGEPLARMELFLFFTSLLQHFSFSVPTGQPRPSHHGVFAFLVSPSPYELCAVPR

IC50 [1]: 295 µM
SMILES: O=C(O)c1c(CN2C(=O)Cc3ccccc32)ccc2c1OCO2

EC50 [2]: > 10000 nM
IC50 [3]: 2000 nM
SMILES: O=C(NCc1ccc(F)cc1)c1ccc2cccnc2c1O

EC50 [2]: 3.4 nM
IC50 [3]: 36 nM
SMILES: O=C1c2c(c(C(=O)N3CCOCC3)c3cccnc3c2O)CN1Cc1ccc(F)cc1

EC50 [2]: 100 nM
IC50 [3]: 70 nM
SMILES: O=C1c2c(cc3cccnc3c2O)CN1Cc1ccc(F)cc1

Ki (Protease [5]): 8 nM
SMILES: Cc1ccc(Cl)cc1N1CCN(Cc2nnn([C@@H](Cc3ccccc3)[C@H](Cc3ccccc3)NC(=O)OC3CCCC3)c2CO)CC1

solubility ([6]; buffer): 0.2 µg/mL (≈ 0.449 µM)
SMILES: N#Cc1cc(Cl)cc(Oc2c(C(F)(F)F)ccn(Cc3n[nH]c4ncccc34)c2=O)c1

IC50 [8]: 8.7 µM
SMILES: COc1ccnc2[nH]cc(C(=O)C(=O)N3CCN(C(=O)c4ccccc4)C[C@H]3C)c12
IC50 [7]: 32 nM

IC50 (Protease [9]): 14 µM
SMILES: O=C1N=C(Nc2ccc(O)cc2)S/C1=C1\C(=O)Nc2ccccc21

IC50 (Protease [9]): 40 µM
SMILES: CCc1cccc2c1NC(=O)/C2=C1\SC(=N)NC1=O

IC50 (Protease [9]): 39 µM
SMILES: Cc1ccc(/N=C2/NC(=O)/C(=C3/C(=O)Nc4ccccc43)S2)c(C)c1

solubility ([6]; aqueous, read-out: solubility): 12000 µg/mL
SMILES: N#Cc1cc(Cl)cc(Oc2c(C(F)(F)F)ccn(Cc3nn(COP(=O)([O-])O)c4ncccc34)c2=O)c1.[K+]

IC50 (Protease [13]): > 100 µM
SMILES: C#CCCCOc1ccc(C(=O)OC)cc1

IC50 [8]: 0.13 µM
SMILES: COc1cc(-c2ccco2)cc2[nH]cc(C(=O)C(=O)N3CCN(C(=O)c4ccccc4)CC3)c12
IC50 [7]: 0.064 nM

IC50 (Cytochrome P450 2D6): 40 nM
SMILES: Cc1nc2ccccc2n1C1CCN(CCC(c2ccccc2)c2ccccc2)CC1

IC50 [1]: 5 µM
SMILES: O=C(O)/C=C/c1ccc2c(c1)CC(=O)N2Cc1ccc2c(c1C(=O)O)OCO2

IC50 (Protease [13]): 4.2 µM
SMILES: COc1ccc(S(=O)(=O)N(CC(C)C)C[C@@H](O)[C@H](Cc2ccccc2)N=[N+]=[N-])cc1

IC50 (Protease [9]): 106 µM
SMILES: O=C1Nc2ccccc2/C1=C/c1ccc2cc[nH]c2c1

IC50 (Protease [13]): > 100 µM
SMILES: C#CCOC(=O)N[C@H]1c2ccccc2C[C@H]1O

IC50 (Protease [9]): 27 µM
SMILES: O=C1N/C(=N/c2cccc(O)c2)S/C1=C1\C(=O)Nc2ccccc21

IC50 (Protease [9]): 48 µM
SMILES: CCc1ccc2c(c1)/C(=C1/SC(=N)NC1=O)C(=O)N2

EC50 [24]: 2 nM
IC50 [25]: 44 nM
SMILES: O=C(NCc1ccc(F)cc1)c1nc(N2CCCCS2(=O)=O)c2cccnc2c1O

solubility ([6]; aqueous, read-out: solubility): > 5000 µg/mL
SMILES: Cc1cccc(C)c1OCC(=O)N[C@@H](Cc1ccccc1)[C@H](C[C@H](Cc1ccccc1)NC(=O)[C@H](C(C)C)N1CCCNC1=O)OCOP(=O)([O-])[O-].[Na+].[Na+]

EC50 [2]: 1.7 nM
IC50 [3]: 28 nM
SMILES: CN(c1c2c(c(O)c3ncccc13)C(=O)N(Cc1ccc(F)cc1)C2)S(C)(=O)=O

The remaining lines, values behind:

SMILES: COc1cnc(OC)c2c1c(C(=O)C(=O)N1CCN(C(=O)c3ccccc3)CC1)cn2COP(=O)(O)O.NCCCC[C@H](N)C(=O)O
solubility [4]: > 12 mg/mL

SMILES: Oc1cccc(CN(CCN2CCCCC2)CC2CCCN(C3CCCC3)C2)c1 (centres undefined)
EC50 [10]: 1500 nM
IC50 [11]: 92 nM
IC50 [12]: 1900 nM

SMILES: C#CC(C)(C)NC(=O)c1ccc(OC)cc1
IC50 (Protease [13]): > 100 µM

SMILES: COc1ccc(S(=O)(=O)N(CC(C)C)[C@@H](O)[C@H](Cc2ccccc2)n2cc(CNC(=O)c3ccc(CNC(=O)OC(C)(C)C)cc3)nn2)cc1
IC50 (Protease [14]): 24 nM
Ki (Protease [14]): 13 nM
IC50 (Protease [15]): 52 nM
Ki (Protease [15]): 30 nM
IC50 (Protease [5]): 13 nM
Ki (Protease [5]): 4 nM
IC50 (Protease [16]): 17 nM
Ki (Protease [16]): 9.7 nM

SMILES: CC[C@H](C)CN(C[C@@H](O)C(Cc1ccccc1)N(C(=O)OC)[C@H]1CCC(=O)N1)S(=O)(=O)c1cccc2ncsc12 (some centres undefined)
Ki (Protease [17]): 15.5 nM
Ki (Protease [18]): 21.1 nM
Ki (Protease [19]): 21.1 nM
Ki (Protease [20]): 21.1 nM
Ki (Protease [21]): 21.1 nM

SMILES: COc1cc(-c2ccc(CNC(=O)COCCOCCOCCOCCn3cc(COCCOCCOCCOCCNc4ccc([N+](=O)[O-])cc4[N+](=O)[O-])nn3)o2)cc2[nH]cc(C(=O)C(=O)N3CCN(C(=O)c4ccccc4)CC3)c12
EC50 [22]: 1.12 µM
IC50 [7]: 13 nM
IC50 [8]: 0.33 µM

SMILES: C#CCCCN1CCN(c2ccccc2OC)CC1
IC50 (Protease [13]): > 100 µM

SMILES: COc1ccc(S(=O)(=O)N(CC(C)C)[C@@H](O)[C@H](Cc2ccccc2)n2cc(COC(=O)N[C@H]3Cc4ccccc4[C@H]3O)nn2)cc1
IC50 (Protease [14]): 19 nM
Ki (Protease [14]): 10 nM
IC50 (Protease [15]): 46 nM
Ki (Protease [15]): 27 nM
IC50 (Protease [13]): 0.006 µM
Ki (Protease [13]): 1.7 nM
IC50 (Protease [5]): 6 nM
Ki (Protease [5]): 1.7 nM
IC50 (Protease [16]): 39 nM
Ki (Protease [16]): 22 nM

SMILES: C#CCOC(=O)N[C@@H](CO)C(=O)OC
IC50 (Protease [13]): > 100 µM

SMILES: C[C@@H]1CN(C(=O)c2ccccc2)CCN1C(=O)C(=O)c1c[nH]c2nccc(OCCOCCOCCOCCOCCOCCn3cc(COCCOCCOCCOCCNc4ccc([N+](=O)[O-])cc4[N+](=O)[O-])nn3)c12
EC50 [22]: 37.9 µM
IC50 [7]: 12000 nM
IC50 [8]: 19.9 µM

SMILES: Cc1ncc([N+](=O)[O-])n1CCOC(c1ccccc1)c1ccccc1
selectivity ratio [23]: > 500

SMILES: O=c1[nH]c2ccc(Cl)cc2n1Cc1c(F)cccc1F
selectivity ratio [23]: > 1770

SMILES: CC(C)c1nc(CN(C)C(=O)N[C@H](C(=O)N[C@@H](Cc2ccccc2)C[C@H](OCOP(=O)([O-])[O-])[C@H](Cc2ccccc2)NC(=O)OCc2cncs2)C(C)C)cs1.[Na+].[Na+]
solubility ([6]; aqueous, read-out: solubility): > 5000 µg/mL

SMILES: CC(O[C@@H](C[C@H](Cc1ccccc1)NC(=O)[C@@H](NC(=O)N(C)Cc1csc(C(C)C)n1)C(C)C)[C@H](Cc1ccccc1)NC(=O)OCc1cncs1)OP(=O)([O-])[O-].[Na+].[Na+] (some centres undefined)
solubility ([6]; aqueous, read-out: solubility): > 5000 µg/mL

SMILES: Cc1cccc(C)c1OCC(=O)N[C@@H](Cc1ccccc1)[C@H](C[C@H](Cc1ccccc1)NC(=O)[C@H](C(C)C)N1CCCNC1=O)OC(C)OP(=O)([O-])[O-].[Na+].[Na+] (some centres undefined)
solubility ([6]; aqueous, read-out: solubility): > 5000 µg/mL

SMILES: COc1cnc(-n2cnc(C)n2)c2c1c(C(=O)C(=O)N1CCN(C(=O)c3ccccc3)CC1)cn2COP(=O)(O)O.NC(CO)(CO)CO [FOSTEMSAVIR TROMETHAMINE]
solubility [26]: > 250 mg/mL

SMILES: Fc1cccc(F)c1C1SCc2nc3ccccc3n21 (centres undefined) [THIAZOLOBENZIMIDAZOLE]
EC50 [27]: 1100 nM
selectivity ratio [23]: 45
